Assay results published in US9637453B2, “3-spirocyclic-6-hydroxamic acid tetralins as HDAC inhibitors” (Forma Therapeutics, Inc., priority 2015, dated 2017).

Experiments:
[1] = biological target: T1, Full length human recombinant HDAC11 (Homo sapiens, UniProt Q96DB2); assay: In vitro histone deacetylase assay, enzymatic HDAC11 (electrophoretic mobility shift assay); type: biochemical; settings: 10 nM HDAC11; 2 μM peptide substrate FAM-RHKK(tri-fluor-Ac)—NH2; 25° C.; 12 concentrations; read-out: HDAC11 Activity Range (IC50)
T1 construct: Full length human recombinant HDAC6 and HDAC11 proteins were expressed in baculoviral system
T1 sequence (Q96DB2 1-347): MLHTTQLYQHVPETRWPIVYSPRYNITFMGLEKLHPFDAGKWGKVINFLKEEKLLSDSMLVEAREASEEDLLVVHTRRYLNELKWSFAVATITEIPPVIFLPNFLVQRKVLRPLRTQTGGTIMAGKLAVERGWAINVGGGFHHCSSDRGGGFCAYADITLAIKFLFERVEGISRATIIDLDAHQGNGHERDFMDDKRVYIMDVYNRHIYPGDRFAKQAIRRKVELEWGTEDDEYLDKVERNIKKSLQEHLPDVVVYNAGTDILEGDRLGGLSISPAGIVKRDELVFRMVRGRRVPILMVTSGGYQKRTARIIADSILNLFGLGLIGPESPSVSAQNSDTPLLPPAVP
Method in brief: (§1)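 Baculovirus-expressed full-length enzymes (HDAC6 1 nM, FAM-RHKK(Ac)-NH2; HDAC11 10 nM, FAM-RHKK(tri-fluor-Ac)-NH2), 2 μM substrate, HEPES pH 7.5, 25°C, 12-point 3× dilutions. Product/substrate separated by microfluidic mobility shift after SDS quench; IC50 from 4-parameter fit, reported as +/++/+++ bins.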

[2] = biological target: T2, Full length human recombinant HDAC6 (Homo sapiens, UniProt Q9UBN7); assay: In vitro histone deacetylase assay, enzymatic HDAC6 (electrophoretic mobility shift assay); type: biochemical; settings: 1 nM HDAC6; 2 μM peptide substrate FAM-RHKK(Ac)—NH2; 25° C.; 12 concentrations; read-out: HDAC6 Activity Range (IC50)
T2 construct: Full length human recombinant HDAC6 and HDAC11 proteins were expressed in baculoviral system
T2 sequence (Q9UBN7 1-1215): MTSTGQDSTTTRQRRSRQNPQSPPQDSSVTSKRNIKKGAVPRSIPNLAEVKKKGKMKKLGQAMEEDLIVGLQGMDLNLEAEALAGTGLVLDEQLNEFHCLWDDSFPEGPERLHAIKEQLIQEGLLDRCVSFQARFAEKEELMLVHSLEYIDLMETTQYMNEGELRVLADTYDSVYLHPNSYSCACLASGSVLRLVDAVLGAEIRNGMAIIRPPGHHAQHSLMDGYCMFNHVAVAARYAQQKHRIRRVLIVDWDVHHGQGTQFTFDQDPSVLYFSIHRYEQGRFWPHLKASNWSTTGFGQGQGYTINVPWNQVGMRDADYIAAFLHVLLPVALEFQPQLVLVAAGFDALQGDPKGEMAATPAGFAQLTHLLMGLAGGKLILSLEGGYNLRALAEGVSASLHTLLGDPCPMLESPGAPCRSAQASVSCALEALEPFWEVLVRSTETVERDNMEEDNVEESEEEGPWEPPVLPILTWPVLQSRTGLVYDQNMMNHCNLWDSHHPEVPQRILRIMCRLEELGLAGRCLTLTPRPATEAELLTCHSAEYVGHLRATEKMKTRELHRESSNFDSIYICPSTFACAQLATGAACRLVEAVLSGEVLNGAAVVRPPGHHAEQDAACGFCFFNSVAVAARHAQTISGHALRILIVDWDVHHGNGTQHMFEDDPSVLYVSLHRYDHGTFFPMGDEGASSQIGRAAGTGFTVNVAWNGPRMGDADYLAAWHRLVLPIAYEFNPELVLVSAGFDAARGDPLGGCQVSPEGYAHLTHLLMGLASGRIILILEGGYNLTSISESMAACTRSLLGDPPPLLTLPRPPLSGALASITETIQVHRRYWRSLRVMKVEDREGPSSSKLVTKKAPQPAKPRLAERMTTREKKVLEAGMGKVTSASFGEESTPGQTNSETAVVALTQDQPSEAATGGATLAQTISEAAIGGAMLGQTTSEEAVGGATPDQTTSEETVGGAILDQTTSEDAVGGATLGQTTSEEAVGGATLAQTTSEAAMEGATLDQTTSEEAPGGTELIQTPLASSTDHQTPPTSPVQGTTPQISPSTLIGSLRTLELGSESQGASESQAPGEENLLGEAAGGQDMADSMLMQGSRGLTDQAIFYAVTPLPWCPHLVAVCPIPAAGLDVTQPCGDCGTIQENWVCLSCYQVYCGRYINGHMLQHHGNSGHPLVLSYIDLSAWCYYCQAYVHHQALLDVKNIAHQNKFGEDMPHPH
Method in brief: as §1

| IC50 [1] [nM] | IC50 [2] [nM] | SMILES |
| --- | --- | --- |
| > 500 | ≤ 100 | CC(C)CN1C[C@@]2(CCc3ccc(C(=O)NO)cc3C2)CC1=O [Compound I-137, (R)—N-hydroxy-1′-isobutyl-5′-oxo-3,4-dihydro-1H-spiro[naphthalene-2,3′-pyrrolidine]-7-carboxamide] |
| > 500 | ≤ 100 | CC(C)CN1C[C@]2(CCc3ccc(C(=O)NO)cc3C2)CC1=O [Compound I-138, (S)—N-hydroxy-1′-isobutyl-5′-oxo-3,4-dihydro-1H-spiro[naphthalene-2,3′-pyrrolidine]-7-carboxamide] |
| > 500 | ≤ 100 | CC(C)N1C[C@@]2(CCc3ccc(C(=O)NO)cc3C2)CC1=O [Compound I-139, (R)—N-hydroxy-1′-isopropyl-5′-oxo-3,4-dihydro-1H-spiro[naphthalene-2,3′-pyrrolidine]-7-carboxamide] |
| > 500 | ≤ 100 | CC(C)N1C[C@]2(CCc3ccc(C(=O)NO)cc3C2)CC1=O [Compound I-140, (S)—N-hydroxy-1′-isopropyl-5′-oxo-3,4-dihydro-1H-spiro[naphthalene-2,3′-pyrrolidine]-7-carboxamide] |
| > 500 | ≤ 100 | O=C(NO)c1ccc2c(c1)C[C@@]1(CC2)CC(=O)N(C2CC2)C1 [Compound I-141, (S)-1′-cyclopropyl-N-hydroxy-5′-oxo-3,4-dihydro-1H-spiro[naphthalene-2,3′-pyrrolidine]-7-carboxamide] |
| > 500 | ≤ 100 | CCN1C[C@@]2(CCc3ccc(C(=O)NO)cc3C2)CC1=O [Compound I-142, (R)-1′-ethyl-N-hydroxy-5′-oxo-3,4-dihydro-1H-spiro[naphthalene-2,3′-pyrrolidine]-7-carboxamide] |
| > 500 | ≤ 100 | CCN1C[C@]2(CCc3ccc(C(=O)NO)cc3C2)CC1=O [Compound I-143, (S)-1′-ethyl-N-hydroxy-5′-oxo-3,4-dihydro-1H-spiro[naphthalene-2,3′-pyrrolidine]-7-carboxamide] |
| > 500 | ≤ 100 | O=C(NO)c1ccc2c(c1)C[C@@]1(CC2)CC(=O)N(CC(F)(F)F)C1 [Compound I-144, (S)—N-hydroxy-5′-oxo-1′-(2,2,2-trifluoroethyl)-3,4-dihydro-1H-spiro[naphthalene-2,3′-pyrrolidine]-7-carboxamide] |
| > 500 | ≤ 100 | O=C(NO)c1ccc2c(c1)C[C@]1(CC2)CC(=O)N(c2ccccc2)C1 [Compound I-145, (R)—N-hydroxy-5′-oxo-1′-phenyl-3,4-dihydro-1H-spiro[naphthalene-2,3′-pyrrolidine]-7-carboxamide] |

More lines, now with the values behind:

| SMILES | IC50 [1] [nM] | IC50 [2] [nM] |
| --- | --- | --- |
| Cc1ccc(CN2CC[C@]3(CCc4ccc(C(=O)NO)cc4C3)C2=O)cc1 [Compound I-123, (R)—N-hydroxy-1′-(4-methylbenzyl)-2′-oxo-3,4-dihydro-1H-spiro[naphthalene-2,3′-pyrrolidine]-7-carboxamide] | > 500 | ≤ 100 |
| O=C(NO)c1ccc2c(c1)C[C@@]1(CC2)CCN(Cc2ccc(C(F)(F)F)c(F)c2)C1=O [Compound I-124, (S)-1′-(3-fluoro-4-(trifluoromethyl)benzyl)-N-hydroxy-2′-oxo-3,4-dihydro-1H-spiro[naphthalene-2,3′-pyrrolidine]-7-carboxamide] | ≤ 100 | ≤ 100 |
| O=C(NO)c1ccc2c(c1)C[C@]1(CC2)CCN(Cc2ccc(C(F)(F)F)c(F)c2)C1=O [Compound I-125, (R)-1′-(3-fluoro-4-(trifluoromethyl)benzyl)-N-hydroxy-2′-oxo-3,4-dihydro-1H-spiro[naphthalene-2,3′-pyrrolidine]-7-carboxamide] | 100 to 500 | ≤ 100 |
| O=C(NO)c1ccc2c(c1)C[C@@]1(CC2)CCN(Cc2ccc(C(F)(F)F)cc2)C1=O [Compound I-126, (S)—N-hydroxy-2′-oxo-1′-(4-(trifluoromethyl)benzyl)-3,4-dihydro-1H-spiro[naphthalene-2,3′-pyrrolidine]-7-carboxamide] | ≤ 100 | ≤ 100 |
| O=C(NO)c1ccc2c(c1)C[C@]1(CC2)CCN(Cc2ccc(C(F)(F)F)cc2)C1=O [Compound I-127, (R)—N-hydroxy-2′-oxo-1′-(4-(trifluoromethyl)benzyl)-3,4-dihydro-1H-spiro[naphthalene-2,3′-pyrrolidine]-7-carboxamide] | 100 to 500 | ≤ 100 |
| O=C(NO)c1ccc2c(c1)C[C@]1(CC2)CC(=O)N(Cc2ccc(F)cc2)C1 [Compound I-128, (R)-1′-(4-fluorobenzyl)-N-hydroxy-5′-oxo-3,4-dihydro-1H-spiro[naphthalene-2,3′-pyrrolidine]-7-carboxamide] | > 500 | ≤ 100 |
| O=C(NO)c1ccc2c(c1)C[C@@]1(CC2)CC(=O)N(Cc2ccc(F)cc2)C1 [Compound I-129, (S)-1′-(4-fluorobenzyl)-N-hydroxy-5′-oxo-3,4-dihydro-1H-spiro[naphthalene-2,3′-pyrrolidine]-7-carboxamide] | > 500 | ≤ 100 |
| CN1C[C@@]2(CCc3ccc(C(=O)NO)cc3C2)CC1=O [Compound I-130, (R)—N-hydroxy-1′-methyl-5′-oxo-3,4-dihydro-1H-spiro[naphthalene-2,3′-pyrrolidine]-7-carboxamide] | > 500 | ≤ 100 |
| CN1C[C@]2(CCc3ccc(C(=O)NO)cc3C2)CC1=O [Compound I-131, (S)—N-hydroxy-1′-methyl-5′-oxo-3,4-dihydro-1H-spiro[naphthalene-2,3′-pyrrolidine]-7-carboxamide] | > 500 | ≤ 100 |
| O=C(NO)c1ccc2c(c1)C[C@@]1(CC2)CC(=O)N(c2ccccc2)C1 [Compound I-132, (S)—N-hydroxy-5′-oxo-1′-phenyl-3,4-dihydro-1H-spiro[naphthalene-2,3′-pyrrolidine]-7-carboxamide] | > 500 | ≤ 100 |
| O=C(NO)c1ccc2c(c1)C[C@]1(CC2)CC(=O)N(CC2CCC2)C1 [Compound I-133, (R)-1′-(cyclobutylmethyl)-N-hydroxy-5′-oxo-3,4-dihydro-1H-spiro[naphthalene-2,3′-pyrrolidine]-7-carboxamide] | > 500 | ≤ 100 |
| O=C(NO)c1ccc2c(c1)C[C@@]1(CC2)CC(=O)N(CC2CCC2)C1 [Compound I-134, (S)-1′-(cyclobutylmethyl)-N-hydroxy-5′-oxo-3,4-dihydro-1H-spiro[naphthalene-2,3′-pyrrolidine]-7-carboxamide] | > 500 | ≤ 100 |
| COCCCN1C[C@@]2(CCc3ccc(C(=O)NO)cc3C2)CC1=O [Compound I-135, (R)—N-hydroxy-1′-(3-methoxypropyl)-5′-oxo-3,4-dihydro-1H-spiro[naphthalene-2,3′-pyrrolidine]-7-carboxamide] | > 500 | ≤ 100 |
| COCCCN1C[C@]2(CCc3ccc(C(=O)NO)cc3C2)CC1=O [Compound I-136, (S)—N-hydroxy-1′-(3-methoxypropyl)-5′-oxo-3,4-dihydro-1H-spiro[naphthalene-2,3′-pyrrolidine]-7-carboxamide] | > 500 | ≤ 100 |
